Data reported in patent publication US20250011330A1, “Imidazo[1,2- a]pyrazine and Imidazo[1,2- a]pyridine Based Tyrosyl-DNA Phosphodiesterase I (TDP1) Inhibitors” (The USA, As Represented by the Secretary, Department of …, priority 2021, published 2025).

target: TDP1 (Homo sapiens (Human), UniProt Q9NUW8); experiment: TDP1 gel-based in vitro fluorescence assay; format: biochemical; details: Table 1, imidazo[1,2-a]pyridin-3-amines; read-out: IC50
Description: (TDP assay buffer: 50 mM Tris HCl, pH 7.5, 80 mM KCl, 2 mM EDTA, 1 mM DTT, 40 μg/ml BSA and 0.01% Tween-20. TDP1 (20 mg/mL in 25 mM Tris-HCl pH 7.2, 150 mM NaCl, 2 mM tris(2-carboxyethyl)phosphine) with 2 mL of well solution composed of 0.1 M MOPS/HEPES pH 7.5, 10% (w/v) PEG 8000, 20% (v/v) ethylene glycol, 0.03 M sodium fluoride, 0.03 M sodium bromide, 0.03 M sodium iodide, 0.03 M sodium bromide and sealed over […] well solution. AF647 labelling buffer: Tris-HCl (pH 7.2, 25 mM), NaCl (150 mM), and tris(2-carboxyethyl)phosphine hydrochloride (TCEP, 2 mM).)
(DNA only: Buffer+DMSO. DMSO only: Enzyme+DMSO. Drug: Enzyme+Drug, 25° C., 10 min+DNA, reaction at 25° C., 15 min.)
Gel images were scanned using a Typhoon FLA 9500 scanner (GE Healthcare) and densitometric analyses were performed using the ImageQuant software (GE Healthcare). The IC50 of TDP1 inhibitors was calculated by comparing the percentage of cleavage product (5′Cy5-[…]-p-3′) to DMSO control.

Chain of TDP1 (Q9NUW8 whole entry): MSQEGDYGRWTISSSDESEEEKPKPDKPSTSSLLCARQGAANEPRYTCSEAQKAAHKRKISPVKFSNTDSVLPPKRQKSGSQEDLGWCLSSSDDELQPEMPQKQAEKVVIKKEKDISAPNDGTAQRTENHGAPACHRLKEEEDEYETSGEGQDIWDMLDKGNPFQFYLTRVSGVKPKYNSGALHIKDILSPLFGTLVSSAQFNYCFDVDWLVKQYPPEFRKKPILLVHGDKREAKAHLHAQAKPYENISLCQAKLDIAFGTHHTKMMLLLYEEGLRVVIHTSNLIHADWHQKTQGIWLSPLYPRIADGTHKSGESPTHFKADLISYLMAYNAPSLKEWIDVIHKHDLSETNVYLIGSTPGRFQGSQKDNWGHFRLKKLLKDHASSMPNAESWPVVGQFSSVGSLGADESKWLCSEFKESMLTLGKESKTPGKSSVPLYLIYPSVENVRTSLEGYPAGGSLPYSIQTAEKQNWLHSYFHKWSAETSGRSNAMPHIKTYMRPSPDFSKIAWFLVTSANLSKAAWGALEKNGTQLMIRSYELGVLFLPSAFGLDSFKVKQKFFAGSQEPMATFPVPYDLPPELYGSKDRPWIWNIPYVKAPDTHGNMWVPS

Compound	IC50 [µM]
O=C(O)c1ccc2nc(-c3ccccc3)c(Nc3ccc([N+](=O)[O-])cc3)n2c1 [Compound 8l, 3-((4-Nitrophenyl)amino)-2-phenylimidazo[1,2-a]pyridine-6-carboxylic acid]	22
O=C(O)c1ccc(Nc2c(-c3ccccc3C(=O)O)nc3ccc(C(=O)O)cn23)cc1 [Compound 8j, 2-(2-Carboxyphenyl)-3-((4-carboxyphenyl)amino)imidazo[1,2-a]pyridine-6-carboxylic acid]	> 100
O=C(O)c1ccc2nc(-c3ccccc3)c(Nc3ccccc3)n2c1 [Compound 8k, 2-Phenyl-3-(phenylamino)imidazo[1,2-a]pyridine-6-carboxylic acid]	2.4
c1ccc(Nc2c(-c3ccccc3)nc3ccccn23)cc1 [Compound 6t, N,2-Diphenylimidazo[1,2-a]pyridin-3-amine]	> 100
CS(=O)(=O)c1ccc2nc(-c3ccc(-c4ccccc4)cc3)c(Nc3ccc(C(=O)O)cc3)n2c1 [Compound 8r, 4-((2-([1,1′-Biphenyl]-4-yl)-6-(methylsulfonyl)imidazo[1,2-a]pyridin-3-yl)amino)benzoic acid]	9.95
Cc1ccc(-c2nc3ccccn3c2Nc2ccc(C(=O)O)cc2)cc1 [Compound 8b, 4-((2-(p-Tolyl)imidazo[1,2-a]pyridin-3-yl)amino)benzoic acid]	14.8

same assay, conditions: Table 2, imidazo[1,2-a]pyrazin-3-amine core; read-out: IC50

Compound	IC50 [µM]
O=C(O)c1cccc(Nc2c(-c3ccc(N4CCOCC4)cc3)nc3cnccn23)c1 [Compound 7p]	942
COc1ccc(-c2nc3cnccn3c2Nc2ccc(C(N)=O)cc2)cc1 [Compound 7c]	> 1000
O=C(O)c1cccc(Nc2c(-c3ccccc3O)nc3cnccn23)c1 [Compound 7m]	370
O=C(O)c1ccccc1Nc1c(-c2ccccc2O)nc2cnccn12 [Compound 7′s, 2-((2-(2-Hydroxyphenyl)imidazo[1,2-a]pyrazin-3-yl)amino)benzoic acid]	> 1000
O=C(O)c1cccc(Nc2c(-c3ccccc3)nc3cnccn23)c1 [Compound 71]	> 1000
CCOC(=O)c1cccc(Nc2c(-c3ccc(C(=O)O)cc3)nc3cnccn23)c1 [Compound 7r, 4-(3-((3-(ethoxycarbonyl)phenyl)amino)imidazo[1,2-a]pyrazin-2-yl)benzoic acid]	> 1000
O=C(O)c1cccc(Nc2c(-c3ccc(O)cc3)nc3cnccn23)c1 [Compound 7o]	216
O=C(O)c1ccc(Nc2c(-c3ccc(Cl)cc3)nc3cnccn23)cc1 [Compound 7w]	> 1000
CNC(=O)c1ccc(Nc2c(-c3ccccc3)nc3cnccn23)cc1 [Compound 7i]	> 1000
O=C(O)c1ccc(-c2nc3cnccn3c2Nc2cccc(C(=O)O)c2)cc1 [Compound 7′t, 3-((2-(4-Carboxyphenyl)imidazo[1,2-a]pyrazin-3-yl)amino)benzoic acid]	> 1000
O=C(O)c1ccc(Nc2c(-c3ccc(F)cc3)nc3cnccn23)cc1 [Compound 7′z, 4-((2-(4-Fluorophenyl)imidazo[1,2-a]pyrazin-3-yl)amino)benzoic acid]	> 1000
COC(=O)c1cccc(Nc2c(-c3ccccc3O)nc3cnccn23)c1 [Compound 7j]	> 1000
CN(C)c1ccc(-c2nc3cnccn3c2Nc2cccc(C(=O)O)c2)cc1 [Compound 7q]	2900
COc1ccccc1Nc1c(-c2ccc(C(=O)O)cc2)nc2cnccn12 [Compound 7g]	2300
O=C(O)c1ccc(Nc2c(-c3cccc(O)c3)nc3cnccn23)cc1 [Compound 7d]	127
O=C(O)c1cccc(Nc2c(-c3cccc(O)c3)nc3cnccn23)c1 [Compound 7n]	2050
Cc1ccc(-c2nc3cnccn3c2Nc2ccc(C(N)=O)cc2)cc1 [Compound 7h]	> 1000
O=C(O)c1ccc(Nc2c(-c3ccccc3)nc3cnccn23)c(O)c1 [Compound 7f]	18
O=C(O)c1ccc(Nc2c(-c3cccc(Cl)c3)nc3cnccn23)cc1 [Compound 7x]	> 1000

same assay, conditions: Table 3, values in brackets (footnote vi); read-out: TDP1 IC50 (μM), separated data from previous experiments

Compound	IC50 [µM]
Cc1ccc(-c2nc3cnccn3c2Nc2cccc(C(=O)O)c2)cc1 [Compound M8]	233
